# Measurements: patent publication US9834558B2, “Substituted bridged urea analogs as sirtuin modulators” (GLAXOSMITHKLINE LLC, priority 2013, dated 2017)
# Where a name gives a salt, the structure may show the parent alone. Read-outs that look alike come from different tables or passages of the source.
# Target: T1, SIRT1 (Homo sapiens, UniProt Q96EB6)
# T1 sequence (Q96EB6 1-747): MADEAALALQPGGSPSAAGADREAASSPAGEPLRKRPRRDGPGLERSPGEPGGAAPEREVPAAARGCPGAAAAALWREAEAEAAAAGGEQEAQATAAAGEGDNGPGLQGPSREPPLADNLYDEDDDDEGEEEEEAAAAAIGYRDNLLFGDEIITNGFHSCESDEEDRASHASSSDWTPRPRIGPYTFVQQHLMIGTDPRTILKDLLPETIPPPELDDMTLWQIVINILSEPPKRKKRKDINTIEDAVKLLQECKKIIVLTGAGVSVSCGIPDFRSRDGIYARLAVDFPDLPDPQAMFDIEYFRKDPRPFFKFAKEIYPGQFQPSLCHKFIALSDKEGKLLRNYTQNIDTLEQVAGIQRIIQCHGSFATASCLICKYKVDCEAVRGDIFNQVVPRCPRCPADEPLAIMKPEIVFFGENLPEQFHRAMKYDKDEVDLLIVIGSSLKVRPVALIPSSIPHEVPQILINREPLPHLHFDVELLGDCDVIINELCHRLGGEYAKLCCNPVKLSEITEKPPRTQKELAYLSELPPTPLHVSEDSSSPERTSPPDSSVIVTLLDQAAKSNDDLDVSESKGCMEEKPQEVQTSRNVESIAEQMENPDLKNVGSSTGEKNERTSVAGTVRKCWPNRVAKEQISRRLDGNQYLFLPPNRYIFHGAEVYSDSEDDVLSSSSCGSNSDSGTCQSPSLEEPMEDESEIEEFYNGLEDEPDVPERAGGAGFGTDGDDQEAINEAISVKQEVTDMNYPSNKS
# Assay: Trp mass spectrometry assay of SIRT1 activation
# Format: biochemical
# Conditions: for TRP Activity (EC1.5): EC1.5 = concentration that results in 150% activation of SIRT1
# Summary of the method: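 Activation read-out: mass-spec measurement of O-acetyl-ADP-ribose or deacetylated Trp peptide versus compound-free controls, giving EC1.5 and Percent Maximum Activation. Reactions ran 25 min at 25 °C, pH 7.5, with 120 μM βNAD+, 0.5 μM acetylated p53-derived peptide and 10 nM His-tagged SIRT1.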
# [1] = Trp peptide assay, maximum activity relative to control (100%), read-out: TRP MAX RESP (percent maximum fold activation)
# [2] = Trp mass spectrometry assay, concentration of test compound giving 150% activation of SIRT1
# [3] = concentration giving 150% activation of SIRT1, Trp peptide substrate
# [4] = Trp mass spectrometry assay, EC1.5 = concentration of test compound that results in 150% activation of SIRT1
SMILES,TRP Activity (EC1.5) (Trp peptide assay),Emax [1] [%],Tryp AVG EC1.5 (μM) [3],also measured
"O=C(Nc1cnccn1)N1c2nc(-c3ccnc(C(F)(F)F)c3)ccc2N2CCC[C@H]1C2 [(9S)-N-(pyrazin-2-yl)-5-[2-(trifluoromethyl)pyridin-4-yl]-1,6,8-triazatricyclo[7.3.1.0 {2,7}]trideca-2(7),3,5-triene-8-carboxamide]",A (A (EC1.5<1 μM)),> 150,–,–
O=C(Nc1ccccn1)N1c2nc(-c3ccc(-c4nnn[nH]4)cc3)ccc2N2CC[C@H]1C2 [Example 347],–,–,–,Tryp AVG EC1.5 (μM) [2]: A (A (EC1.5<1 μM))
"CCc1cnc(NC(=O)N2c3nc(-c4ccnc(C)c4)ccc3N3CC[C@H]2C3)cn1 [(9S)-N-(5-ethylpyrazin-2-yl)-5-(2-methylpyridin-4-yl)-1,6,8-triazatricyclo[7.2.1.0 {2,7}]dodeca-2(7),3,5-triene-8-carboxamide]",A (A (EC1.5<1 μM)),> 150,–,–
Cc1cc(-c2ccc3c(n2)N(C(=O)Nc2cccnc2)[C@H]2CCN3C2)ccn1 [Example 498],–,–,–,Tryp AVG EC1.5 (μM) [4]: A (A (EC1.5<1 μM))
O=C(Nc1cccnc1)N1c2nc(-c3cccc(Cl)c3)ccc2N2CCC1CC2 [Example 496],–,–,–,Tryp AVG EC1.5 (μM) [4]: A (A (EC1.5<1 μM))
"Cc1cc(-c2ccc3c(n2)N(C(=O)Nc2cc4cn[nH]c4cn2)[C@H]2CCN3C2)ccn1 [(9S)-5-(2-methylpyridin-4-yl)-N-{1H-pyrazolo[3,4-c]pyridin-5-yl}-1,6,8-triazatricyclo[7.2.1.0 {2,7}]dodeca-2(7),3,5-triene-8-carboxamide]",A (A (EC1.5<1 μM)),> 150,–,–
"O=C(Nc1cnccn1)N1c2nc(N3CCC(C(F)(F)F)CC3)ccc2N2CC[C@H]1C2 [(9S)-N-(pyrazin-2-yl)-5-[4-(trifluoromethyl)piperidin-1-yl]-1,6,8-triazatricyclo[7.2.1.0 {2,7}]dodeca-2(7),3,5-triene-8-carboxamide]",A (A (EC1.5<1 μM)),> 150,–,–
"Cc1cc(-c2ccc3c(n2)N(C(=O)Nc2ccccn2)[C@H]2CCCN3C2)ccn1 [(9S)-5-(2-methylpyridin-4-yl)-N-(pyridin-2-yl)-1,6,8-triazatricyclo[7.3.1.0 {2,7}]trideca-2(7),3,5-triene-8-carboxamide]",A (A (EC1.5<1 μM)),> 150,–,–
"CC1(C)CN(c2ccc3c(n2)N(C(=O)Nc2cnccn2)[C@H]2CCN3C2)CCO1 [(9S)-5-(2,2-dimethylmorpholin-4-yl)-N-(pyrazin-2-yl)-1,6,8-triazatricyclo[7.2.1.0 {2,7}]dodeca-2(7),3,5-triene-8-carboxamide]",A (A (EC1.5<1 μM)),> 150,–,–
O=C(Nc1cccnc1)N1c2nc(C3CCCC(C(F)(F)F)C3)ccc2N2CC[C@H]1C2 (stereo partly shown) [Example 99],–,–,–,"Tryp AVG EC1.5 (μM) (Trp peptide substrate, concentration giving 150% activation of SIRT1): A (A (EC1.5<1 μM))"
NC(=O)c1cncc(-c2ccc3c(n2)N(C(=O)Nc2ccccn2)[C@H]2CCN3C2)c1 [Example 371],–,–,–,Tryp AVG EC1.5 (μM) [2]: B (B (EC1.5 1-25 μM))
COC(=O)N1CCCN(c2ccc3c(n2)N(C(=O)Nc2ccncn2)[C@H]2CCCN3C2)CC1 [Example 446],–,–,–,Tryp AVG EC1.5 (μM) [4]: B (B (EC1.5 1-25 μM))
Cc1cncc(-c2ccc3c(n2)N(C(=O)Nc2cccnn2)[C@H]2CCCN3C2)c1 [Example 519],–,–,–,Tryp AVG EC1.5 (μM) [4]: A (A (EC1.5<1 μM))
"N#Cc1ncc(-c2ccc3c(n2)N(C(=O)Nc2cnccn2)[C@H]2CCN3C2)cc1F [(9S)-5-(6-cyano-5-fluoropyridin-3-yl)-N-(pyrazin-2-yl)-1,6,8-triazatricyclo[7.2.1.0^2,7]dodeca-2(7),3,5-triene-8-carboxamide]",C (C (EC1.5>25 μM)),< 150,–,–
"O=C(Nc1ccccn1)N1c2nc(N3CCC[C@@H]3C(F)(F)F)ccc2N2CC[C@H]1C2 [(9S)-N-(pyridin-2-yl)-5-[(2R)-2-(trifluoromethyl)pyrrolidin-1-yl]-1,6,8-triazatricyclo[7.2.1.0 {2,7}]dodeca-2(7),3,5-triene-8-carboxamide]",A (A (EC1.5<1 μM)),> 150,–,–
"O=C(Nc1cnccn1)N1c2nc(-c3cnc(C4CC4)c(C(F)(F)F)c3)ccc2N2CC[C@H]1C2 [(9S)-5-[6-cyclopropyl-5-(trifluoromethyl)pyridin-3-yl]-N-(pyrazin-2-yl)-1,6,8-triazatricyclo[7.2.1.0 {2,7}]dodeca-2,4,6-triene-8-carboxamide]",A (A (EC1.5<1 μM)),> 150,–,–
"Cc1cc(-c2ccc3c(n2)N(C(=O)N2CCO[C@H](C)C2)[C@H]2CCN3C2)ccn1 [(9S)-8-{[(2R)-2-methylmorpholin-4-yl]carbonyl}-5-(2-methylpyridin-4-yl)-1,6,8-triazatricyclo[7.2.1.0 {2,7}]dodeca-2(7),3,5-triene hydrochloride]",C (C (EC1.5>25 μM)),< 150,–,–
"O=C(Nc1ccccn1)N1c2nc(N3CCC[C@@H](C(F)(F)F)C3)ccc2N2CC[C@H]1C2 [(9S)-N-(pyridin-2-yl)-5-[(3R)-3-(trifluoromethyl)piperidin-1-yl]-1,6,8-triazatricyclo[7.2.1.0 {2,7}]dodeca-2,4,6-triene-8-carboxamide]",B (B (EC1.5 1-25 μM)),> 150,–,–
Cc1[nH]ncc1-c1ccc2c(n1)N(C(=O)Nc1cccnc1)[C@H]1CCN2C1 [Example 490],–,–,–,Tryp AVG EC1.5 (μM) [4]: B (B (EC1.5 1-25 μM))

# Further lines, with some results ahead:
TRP Activity (EC1.5) (Trp peptide assay),Emax [1] [%],Tryp AVG EC1.5 (μM) [3],SMILES,also measured
–,–,B (B (EC1.5 1-25 μM)),COc1cc(NC(=O)N2c3nc(-c4cccc(Cl)c4)ccc3N3C[C@@H](O)[C@H]2C3)ncn1 [Example 679],–
–,–,A (A (EC1.5<1 μM)),O=C(Nc1cccc(-c2ccccn2)c1)N1c2nc(-c3cccc(C(F)(F)F)c3)ccc2N2CC[C@H]1C2 [Example 667],–
–,–,A (A (EC1.5<1 μM)),N=C(N)NCc1ncc(-c2cccc(NC(=O)N3c4nc(-c5cccc(C(F)(F)F)c5)ccc4N4CC[C@H]3C4)c2)o1 [Example 776],–
–,–,A (A (EC1.5<1 μM)),O=C(C1CC1)N1CCC(c2cccc(NC(=O)N3c4nc(-c5cccc(C(F)(F)F)c5)ccc4N4CC[C@H]3C4)c2)C1 (stereo partly shown) [Example 637],–
B (B (EC1.5 1-25 μM)),> 150,–,"COC(=O)c1cc(-c2ccc3c(n2)N(C(=O)Nc2cnccn2)[C@H]2CCN3C2)ccn1 [methyl 4-[(9S)-8-[(pyrazin-2-yl)carbamoyl]-1,6,8-triazatricyclo[7.2.1.0 {2,7}]dodeca-2(7),3,5-trien-5-yl]pyridine-2-carboxylate]",–
–,–,A (A (EC1.5<1 μM)),O=C(Nc1ccncc1)N1c2nc(-c3cccc(C(F)(F)F)c3)ccc2N2CC[C@@H]1C2 [Example 824],–
–,–,A (A (EC1.5<1 μM)),O=C(Nc1cccc(-c2ccccc2)c1)N1c2nc(-c3cccc(C(F)(F)F)c3)ccc2N2CC[C@H]1C2 [Example 625],–
–,–,B (B (EC1.5 1-25 μM)),CC(C)(C)OC(=O)NCc1cccc(-c2ccc3c(n2)N(C(=O)Nc2ccncc2)[C@H]2CCN3C2)c1 [Example 794],"Emax (percent maximum fold activation of SIRT1, Trp peptide substrate, read-out: Tryp % Fold Act): > 150%"
–,–,B (B (EC1.5 1-25 μM)),O=C(NCc1ccc(NC(=O)N2c3nc(-c4cccc(C(F)(F)F)c4)ccc3N3CC[C@H]2C3)cc1)OC[C@@H]1[C@@H]2CCC#CCC[C@@H]21 [Example 796],–
–,–,A (A (EC1.5<1 μM)),O=C(Nc1ccncc1)N1c2nc(-c3cccc(C(F)(F)F)c3)ccc2N2CC[C@H]1C2 [Example 817],–
–,–,A (A (EC1.5<1 μM)),[N-]=[N+]=NCC(=O)NCc1ccc(NC(=O)N2c3nc(-c4cccc(C(F)(F)F)c4)ccc3N3CC[C@H]2C3)cc1 [Example 799],–
